Patent US8993768B2, “Tropolone compounds for treating or preventing retroviral infection” (The United States of America, as represented by the …, priority 2011, dated 2015)
Where two headings read alike, the source gives them in different places.

Experiments:
[1] = biological target: T1, HIV-1 RNase H (p66/p51 HIV-1 RT) (Human immunodeficiency virus type 1 group M subtype B, UniProt P04585); test: High throughput RNase H assay on sequence-independent RNA/DNA hybrid; format: biochemical; conditions: HIV-1 RNase H enzymatic activity, sequence-independent RNA/DNA hybrid; read-out: In vitro IC50
T1 construct: RT is a p66/p51 heterodimer comprised of asymmetrically-organized subunits processed from the 165 kDa gag/pol polyprotein precursor; (His)6; made in house; host or cells: Escherichia coli
Method: IC50 values were determined as previously reported (Budihas, S. R., et al., Nucleic Acids Res., 33(4):1249-56 (2005)), using an 18-nucleotide 3′-flourescein-labeled RNA annealed to a complementary 18-nucleotide 5′-dabsyl-labeled DNA. […] The reaction was initiated by adding 1 μl of 100 mM MgCl2 to 9 μl of mixture containing 4 ng enzyme, 200 nM substrate, 20 μM α-hydroxytropolones in 50 mM Tris, pH 8.0, 80 mM KCl, 2 mM DTT, and 10% DMSO at 37° C., and quenched with 10 μl of a gel-loading buffer after 10 minutes. Hydrolysis products were fractionated by denaturing polyacrylamide gel electrophoresis and visualized by fluorescent imaging (Typhoon Trio+, GE Healthcare, Piscataway, N.J.). […]

[2] = test system: HIV-1 virus strain RF in CEM-SS cells; test: HIV-1 cytopathicity assay; format: cell-based; conditions: for EC50: read-out: Virus Replication EC50; for Virus Replication EC50, protective effect class: tested up to 50 μM
Method: This assay was conducted as previously reported (Weislow, O, S., et al., J. Natl. Cancer Inst., 81(8):577-86 (1989)). Samples were dissolved in DMSO at 10 mM and diluted to a final high concentration of 50 μM in the 96-well assay plate, with 2-fold dilutions made to a low concentration of about 0.78 μM. All samples were tested in duplicate. The HIV-1 virus strain RF was used to infect CEM-SS cells. Compound cytotoxicity was measured in the same assay plate using uninfected cells. Regression analysis was used to estimate the effective concentration (EC50) as well as the cytotoxic concentration (CC50).

[3] = Compound cytotoxicity in uninfected cells (same assay plate); format: cell-based; conditions: human, uninfected CEM-SS cells; read-out: Virus Replication CC50
Method: All samples were tested in duplicate. The HIV-1 virus strain RF was used to infect CEM-SS cells. Compound cytotoxicity was measured in the same assay plate using uninfected cells. Regression analysis was used to estimate the effective concentration (EC50) as well as the cytotoxic concentration (CC50).

[4] = biological target: T2, HIV-1 RT RNase H (Human immunodeficiency virus type 1 group M subtype B, UniProt P04585); test: Cleavage of the HIV-1 polypurine tract (PPT) primer, PPT/U3 junction; format: biochemical; conditions: 20 μM inhibitor
T2 construct: RT is a p66/p51 heterodimer comprised of asymmetrically-organized subunits processed from the 165 kDa gag/pol polyprotein precursor; (His)6; made in house; host or cells: Escherichia coli
Method: FIG. 2A depicts a schematic model of RNA/DNA substrate, indicating the RNase H cleavage site at the PPT/U3 junction (< >). The PPT is indicated by the shaded box. FIG. 2B depicts the quantification of PPT cleavage data. All inhibitors were evaluated at 20 μM.
IC50 values were determined as previously reported (Budihas, S. R., et al., Nucleic Acids Res., 33(4):1249-56 (2005)), using an 18-nucleotide 3′-flourescein-labeled RNA annealed to a complementary 18-nucleotide 5′-dabsyl-labeled DNA. […] The reaction was initiated by adding 1 μl of 100 mM MgCl2 to 9 μl of mixture containing 4 ng enzyme, 200 nM substrate, 20 μM α-hydroxytropolones in 50 mM Tris, pH 8.0, 80 mM KCl, 2 mM DTT, and 10% DMSO at 37° C., and quenched with 10 μl of a gel-loading buffer after 10 minutes. Hydrolysis products were fractionated by denaturing polyacrylamide gel electrophoresis and visualized by fluorescent imaging (Typhoon Trio+, GE Healthcare, Piscataway, N.J.).
Since the high-throughput RNase H assay examines non-specific, “polymerase-independent” RNase H activity defined by the spatial separation of the DNA polymerase and RNase H active site of HIV-1 RT (Gopalakrishnan, V., et al., Proc. Natl. Acad. Sci. USA, 89(22):10763-7 (1992)), an examination of whether α-hydroxytropolones altered cleavage specificity on a more biologically-relevant substrate, namely the polypurine tract (PPT) primer, which must be processed from the RNA/DNA replication intermediate to initiate (+) strand DNA synthesis.

[5] = Human immunodeficiency virus 1, CEM-SS, HIV-1 RF

For `Cc1cc(O)c(=O)c(O)c2c1CC(C(C)(O)CN1CCCCC1)CC2` (mixture of isomers) [Compound 1, 5,7-Dihydroxy-2-(1-hydroxy-1-methyl-2-piperidin-1-yl-ethyl)-9-methyl-1,2,3,4-tetrahydro benzocyclohepten-6-one], the IC50 [1] was 0.93 µM, the “protection against the cytopathic effect of the virus (in words)” value (shortened to “protection against the cytopathic effect”) ([2]; HIV-1 RF) was “showed protection” and the EC50 [2, 5] was 10.2 µM. The CC50 [3] was > 50 µM.
With `CCN(CC)CC(C)(O)C1CCc2c(c(C)cc(O)c(=O)c2O)C1` (mixture of isomers) [Compound 3, 2-(2-Diethylamino-1-hydroxy-1-methyl-ethyl)-5,7-dihydroxy-9-methyl-1,2,3,4-tetrahydrobenzocyclohepten-6-one] the IC50 [1] was 0.49 µM, the “inhibition of PPT/U3 cleavage (in words)” value [4] was “ineffective” and the “protection against the cytopathic effect” value ([2]; HIV-1 RF) was “slight protection”. For the same molecule, the “Virus Replication EC50, protective effect class” value (“Virus Replication EC50” below) ([2]; HIV-1 RF) was <50% (<50%=protective effect less than 50% of control, i.e. weak activity) and the CC50 [3] was > 50 µM.
With `CCSCC(C)(O)C1CCc2c(c(C)cc(O)c(=O)c2O)C1` (mixture of isomers) [Compound 6, 2-(2-Ethylthio-1-hydroxy-1-methyl-ethyl)-5,7-dihydroxy-9-methyl-1,2,3,4-tetrahydrobenzocyclohepten-6-one] the IC50 [1] was 0.41 µM, the “protection against the cytopathic effect” value ([2]; HIV-1 RF) was “slight protection” and the “Virus Replication EC50” value ([2]; HIV-1 RF) was <50% (<50%=protective effect less than 50% of control, i.e. weak activity). It also gave a CC50 [3] of 25.8 µM.
For `Cc1cc(O)c(=O)c(O)c2c1CC(C(C)(O)CSc1ccccc1)CC2` (mixture of isomers) [Compound 7, 5,7-Dihydroxy-2-(1-hydroxy-1-methyl-2-phenylthio-ethyl)-9-methyl-1,2,3,4-tetrahydrobenzocyclohepten-6-one], the IC50 [1] was 0.91 µM, the “protection against the cytopathic effect” value ([2]; HIV-1 RF) was “showed protection” and the EC50 [2, 5] was 11.5 µM. It also gave a CC50 [3] of 17.8 µM.
With `Cc1cc(O)c(=O)c(O)c2c1CC(C(C)(O)CSCc1ccccc1)CC2` (mixture of isomers) [Compound 8, 2-(2-Benzylthio-1-hydroxy-1-methyl-ethyl)-5,7-dihydroxy-9-methyl-1,2,3,4-tetrahydrobenzocyclohepten-6-one] the IC50 [1] was 1.3 µM, the “protection against the cytopathic effect” value ([2]; HIV-1 RF) was “showed protection” and the EC50 [2, 5] was ~4.2 µM. The CC50 [3] was 17.4 µM.
For `CCS(=O)(=O)CC(C)(O)C1CCc2c(c(C)cc(O)c(=O)c2O)C1` (mixture of isomers) [Compound 9, 2-(2-Ethanesulfonyl-1-hydroxy-1-methyl-ethyl)-5,7-dihydroxy-9-methyl-1,2,3,4-tetrahydrobenzocyclohepten-6-one], the IC50 [1] was 0.26 µM, the inhibition at 20 µM ([4]; read-out: effectiveness in inhibiting PPT/U3 cleavage) was ~100% and the “protection against the cytopathic effect” value ([2]; HIV-1 RF) was “slight protection”. For the same molecule, the “Virus Replication EC50” value ([2]; HIV-1 RF) was <50% (<50%=protective effect less than 50% of control, i.e. weak activity) and the CC50 [3] was 10.4 µM.
In the case of `Cc1cc(O)c(=O)c(O)c2c1CC(C(C)(O)CS(=O)(=O)c1ccccc1)CC2` (mixture of isomers) [Compound 11, 2-(2-benzenesulfonyl-1-hydroxy-1-methyl-ethyl)-5,7-dihydroxy-9-methyl-1,2,3,4-tetrahydrobenzocyclohepten-6-one], the IC50 [1] is reported as 0.59 µM, the “inhibition of PPT/U3 cleavage (in words)” value [4] is reported as “ineffective” and the “protection against the cytopathic effect” value ([2]; HIV-1 RF) is reported as “showed protection”. The EC50 [2, 5] was 21.2 µM and the CC50 [3] was > 50 µM.
With `Cc1cc(O)c(=O)c(O)c2c1CC(C(C)O)CC2` (mixture of isomers) [Compound 13, 5,7-Dihydroxy-2-(1-hydroxy-ethyl)-9-methyl-1,2,3,4-tetrahydrobenzocyclohepten-6-one] the IC50 [1] was 0.75 µM, the “protection against the cytopathic effect” value ([2]; HIV-1 RF) was “showed protection” and the EC50 [2, 5] was 6.9 µM. The CC50 [3] was 26.1 µM.
With `Cc1cc(O)c(=O)c(O)c2c1CC(C(C)(O)Cn1ccnc1)CC2` (stereo not drawn) [Compound 2, 5,7-Dihydroxy-2-(1-hydroxy-2-imadazol-1-yl-1-methyl-ethyl)-9-methyl-1,2,3,4-tetrahydro benzocyclohepten-6-one] the “inhibition of PPT/U3 cleavage (in words)” value [4] was “less active”, the “protection against the cytopathic effect” value ([2]; HIV-1 RF) was “showed protection” and the EC50 ([2]; Human immunodeficiency virus 1, HIV-1 RF) was 42.1 µM. The CC50 [3] was > 50 µM.
